Results as given in paper PMC10126264, “Synergistic effect and antibiofilm activity of the antimicrobial peptide K11 with conventional antibiotics against multidrug-resistant and extensively drug-resistant Klebsiella pneumoniae” (Frontiers in Cellular and Infection Microbiology, 2023).
Where two headings read alike, the source gives them in different places. Residues, ends and D or L forms follow the SMILES beside them.

Key:
[1] = murine excision model; ref Rishi et al., 2018; cited from earlier work
Excerpt: The pH and thermal stability of AMPs are essential for their preparation, processing, and storage ([Zong et al., 2016]). At the same time, the stability of AMPs in serum and under physiological salt conditions is also crucial when administrating AMPs in vivo ([Rodríguez et al., 2021]).

[2] = system: K. pneumoniae ATCC 70063
Method: (§1) The effects of various cations and serum on the antimicrobial activity of K11 were investigated against K. pneumoniae ATCC 70063 and K. pneumoniae ATCC BAA-1706 by the MIC assay, as described above. For salt stability, 2 mg/mL of K11 was dissolved in solutions containing different salts at their physiological concentrations; NaCl (100, 150, and 200 mM), MgCl2 (0.5, 1 and 2 mM), and FeCl3 (1, 4, and 8 mM), then incubated for 1 h at 37°C. Subsequently, serially 2-fold diluted K11 solutions were prepared in CAMHB, and aliquots of each peptide solution were added to a 96-well plate. An equal volume of bacterial suspension was added, and the mixtures were incubated at 37°C for 20-24 h ([Ko et al., 2019]). For serum stability, 2 mg/mL of K11 was prepared in solution with 25% and 50% FBS and incubated for 1 h at 37°C, then heat […] for 30 min at 60°C. A series of 2-fold dilutions of K11 were performed in CAMHB and transferred to a 96-well plate. The diluted bacterial suspension was added to the well, and mixtures were incubated for 20-24 h at 37°C ([Oliva et al., 2018]). The antimicrobial activity was determined by measuring the MICs.

[3] = system: K. pneumoniae ATCC BAA-1706
Method: as §1

[4] = system: K. pneumoniae ATCC 70063; remark: listed apart in the source
Method: as §1, with “For salt stability, 2 mg/mL of K11 was dissolved in solutions containing different salts at their physiological concentrations; NaCl (100, 150, and 200 mM), MgCl2 (0.5, 1 and 2 mM), and FeCl3 (1, 4, and 8 mM), then incubated for 1 h at 37°C.” left out

[5] = K11 2 mg/mL in 25% FBS, 1 h at 37°C, then 30 min at 60°C, then MIC in CAMHB
[6] = K11 2 mg/mL in 50% FBS, 1 h at 37°C, then 30 min at 60°C, then MIC in CAMHB

CC[C@H](C)[C@H](NC(=O)[C@H](Cc1ccccc1)NC(=O)[C@H](CO)NC(=O)[C@H](CCCCN)NC(=O)[C@H](Cc1c[nH]c2ccccc12)NC(=O)[C@@H](N)CCCCN)C(=O)N[C@@H](CCCCN)C(=O)N[C@@H](CCCCN)C(=O)N[C@@H](CC(C)C)C(=O)N[C@H](C(=O)N[C@@H](CCCCN)C(=O)N[C@@H](CCCCN)C(=O)N[C@@H](Cc1ccccc1)C(=O)N[C@@H](CC(C)C)C(=O)N[C@@H](Cc1c[nH]cn1)C(=O)N[C@@H](CO)C(=O)N[C@@H](C)C(=O)N[C@@H](CCCCN)C(=O)N[C@@H](CCCCN)C(=O)N[C@@H](Cc1ccccc1)C(N)=O)[C@@H](C)O [K11] (H-KWKSFIKKLTKKFLHSAKKF-NH2)
cytotoxicity [1]: no cytotoxicity | Antimicrobial activity MIC ([2]; 0% FBS (control)): 4 µg/mL | Antimicrobial activity MIC [2, 5]: 4 µg/mL | Antimicrobial activity MIC [2, 6]: 4 µg/mL | Antimicrobial activity MIC ([3]; 0% FBS (control)): 2 µg/mL | Antimicrobial activity MIC [3, 5]: 2 µg/mL | Antimicrobial activity MIC [3, 6]: 2 µg/mL | Antimicrobial activity MIC ([4]; Control, salt concentration 0): 4 µg/mL | Antimicrobial activity MIC ([4]; K11 2 mg/mL in FeCl3 1 µM, 1 h at 37°C, then MIC in CAMHB): 4 µg/mL | Antimicrobial activity MIC ([4]; K11 2 mg/mL in FeCl3 4 µM, 1 h at 37°C, then MIC in CAMHB): 4 µg/mL | Antimicrobial activity MIC ([4]; K11 2 mg/mL in FeCl3 8 µM, 1 h at 37°C, then MIC in CAMHB): 4 µg/mL | Antimicrobial activity MIC ([4]; K11 2 mg/mL in MgCl2 0.5 mM, 1 h at 37°C, then MIC in CAMHB): 4 µg/mL | Antimicrobial activity MIC ([4]; K11 2 mg/mL in MgCl2 1 mM, 1 h at 37°C, then MIC in CAMHB): 4 µg/mL | Antimicrobial activity MIC ([4]; K11 2 mg/mL in MgCl2 2 mM, 1 h at 37°C, then MIC in CAMHB): 8 µg/mL | Antimicrobial activity MIC ([4]; K11 2 mg/mL in NaCl 100 mM, 1 h at 37°C, then MIC in CAMHB): 4 µg/mL | Antimicrobial activity MIC ([4]; K11 2 mg/mL in NaCl 150 mM, 1 h at 37°C, then MIC in CAMHB): 4 µg/mL | Antimicrobial activity MIC ([4]; K11 2 mg/mL in NaCl 200 mM, 1 h at 37°C, then MIC in CAMHB): 4 µg/mL
